{"source": "patent US20240400555A1", "about": "(Initial Therapeutics, Inc., priority 2023, published 2024)"}
{"tested_on": "MV-4-11 cells", "assay": "Cell Viability Assay in MV-4-11 Cells", "format": "cell-based", "settings": "Homo sapiens, MV4-11, 72 h", "method_in_brief": "(§1)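 Luminescent ATP read-out (CellTiter-Glo) after 72 h compound treatment of MV-4-11 leukaemia cells (7,000 per well, IMDM plus 10% FBS). Values expressed relative to DMSO control and derived by four-parameter non-linear regression.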", "units": {"IC50": "nM"}}
{"smiles": "[2H]C([2H])([2H])c1nnc(-c2ccc(C(=O)N(c3nccc4scc(C)c34)[C@@H]3CCCNC3)c(F)c2)s1", "note": "[Example 780, 2-fluoro-N-(3-methylthieno[3,2-c]pyridin-4-yl)-N-[(3R)-3-piperidyl]-4-[5-(trideuteriomethyl)-1,3,4-thiadiazol-2-yl] benzamide]", "IC50": 120}
{"tested_on": "MV-4-11 cells", "assay": "Cell Viability Assay in MV-4-11 Cells", "format": "cell-based", "settings": "Homo sapiens, MV4-11, 72 h, MV-4-11 cells, 72 h, Cell-Titer Glo; read-out: IC50", "method_in_brief": "as §1", "units": {"IC50": "nM"}}
{"smiles": "CNS(=O)(=O)c1cccc(-c2cc3c(N(C(=O)c4ccc(-c5cn(C)nn5)cc4F)[C@@H]4CCCNC4)nccc3s2)c1", "note": "[Example 535, 2-fluoro-N-[2-[3-(methylsulfamoyl)phenyl]thieno[3,2-c]pyridin-4-yl]-4-(1-methyltriazol-4-yl)-N-[(3R)-3-piperidyl]benzamide]", "IC50": 1200}
{"smiles": "Cc1cccc2ccnc(N(C(=O)N3CCCC(CCC(=O)Nc4ccc5[nH]ncc5c4)C3)[C@@H]3CCCNC3)c12", "note": "(stereo partly drawn) [Example 498, 3-(3-((1H-indazol-5-yl)amino)-3-oxopropyl)-N-(8-methylisoquinolin-1-yl)-N—((R)-piperidin-3-yl)piperidine-1-carboxamide]", "IC50": 2000}
{"smiles": "Cc1cc(-c2cc3c(N(C(=O)c4ccc(-n5nnc6cccnc65)cc4F)[C@@H]4CCCNC4)nccc3s2)cc(C)n1", "note": "[Example 571, N-[2-(2,6-dimethyl-4-pyridyl)thieno[3,2-c]pyridin-4-yl]-2-fluoro-N-[(3R)-3-piperidyl]-4-(triazolo[4,5-b]pyridin-3-yl)benzamide]", "IC50": 63}
{"smiles": "O=C(c1ccc(-n2nnc3cccnc32)cc1)N(c1ncccc1Cl)[C@@H]1CCCNC1", "note": "[Example 305, (R)-4-(3H-[1,2,3]triazolo[4,5-b]pyridin-3-yl)-N-(3-chloropyridin-2-yl)-N-(piperidin-3-yl)benzamide]", "IC50": 1600}
{"smiles": "Cc1cccc2ccnc(N(C(=O)c3ccc(Nc4nccc(C5=CCOCC5)n4)cc3F)[C@@H]3CCCNC3)c12", "note": "[Example 685, (R)-4-((4-(3,6-dihydro-2H-pyran-4-yl)pyrimidin-2-yl)amino)-2-fluoro-N-(8-methylisoquinolin-1-yl)-N-(piperidin-3-yl)benzamide]", "IC50": 49}
{"smiles": "Cc1cccc2ccnc(N(C(=O)c3ccc(Nc4nccc(CN5CCC(F)(F)CC5)n4)cc3)[C@@H]3CCCNC3)c12", "note": "[Example 972, (R)-4-((4-((4,4-difluoropiperidin-1-yl)methyl)pyrimidin-2-yl)amino)-N-(8-methylisoquinolin-1-yl)-N-(piperidin-3-yl)benzamide]", "IC50": 213}
{"smiles": "O=C(c1ccc(-n2nnc3cccnc32)cc1F)N(c1nccc2cccnc12)[C@@H]1CCCNC1", "note": "[Example 325, (R)-4-(3H-[1,2,3]triazolo[4,5-b]pyridin-3-yl)-2-fluoro-N-(1,7-naphthyridin-8-yl)-N-(piperidin-3-yl)benzamide]", "IC50": 1500}
{"smiles": "Cc1cc(C)c2c(N(C(=O)c3ccc(-c4nc(C)no4)nc3)[C@@H]3CCCNC3)nccc2c1", "note": "[Example 916, N-(6,8-dimethyl-1-isoquinolyl)-6-(3-methyl-1,2,4-oxadiazol-5-yl)-N-[(3R)-3-piperidyl]pyridine-3-carboxamide]", "IC50": 570}
{"smiles": "Cc1ccc(C)c2c(N(C(=O)c3ccc(-c4cn(C)nn4)cc3)[C@@H]3CCCNC3)nccc12", "note": "[Example 861, N-(5,8-dimethyl-1-isoquinolyl)-4-(1-methyltriazol-4-yl)-N-[(3R)-3-piperidyl]benzamide]", "IC50": 620}
{"smiles": "COC(=O)c1nc(-c2cc3c(N(C(=O)c4ccc(-n5nnc6cccnc65)cc4F)[C@@H]4CCCNC4)nccc3s2)cs1", "note": "[Example 429, methyl 4-[4-[[2-fluoro-4-(triazolo[4,5-b]pyridin-3-yl)benzoyl]-[(3R)-3-piperidyl]amino]thieno[3,2-c]pyridin-2-yl]thiazole-2-carboxylate]", "IC50": 1000}
{"smiles": "Cc1cccc2ccnc(N(C(=O)c3ccc(Nc4ncc(N)cn4)cc3F)[C@@H]3CCCNC3)c12", "note": "[Example 410, (R)-4-((5-aminopyrimidin-2-yl)amino)-2-fluoro-N-(8-methylisoquinolin-1-yl)-N-(piperidin-3-yl)benzamide]", "IC50": 190}
{"smiles": "Cc1nnc(-c2ccc(C(=O)N(c3nccc4cc(Cl)cc(C)c34)[C@@H]3CCCNC3)c(F)c2)s1", "note": "[Example 815, (R)—N-(6-chloro-8-methylisoquinolin-1-yl)-2-fluoro-4-(5-methyl-1,3,4-thiadiazol-2-yl)-N-(piperidin-3-yl)benzamide]", "IC50": 69}
{"smiles": "Cc1cccc2ccnc(N(C(=O)c3cccc(C#CCCO)c3)[C@@H]3CCCNC3)c12", "note": "[Example 512, (R)-3-(4-hydroxybut-1-yn-1-yl)-N-(8-methylisoquinolin-1-yl)-N-(piperidin-3-yl)benzamide]", "IC50": 1100}
{"smiles": "Cc1cccc2ccnc(N(C(=O)c3ccc(Nc4nccc(NCC#N)n4)cc3F)[C@@H]3CCCNC3)c12", "note": "[Example 950, (R)-4-((4-((cyanomethyl)amino)pyrimidin-2-yl)amino)-2-fluoro-N-(8-methylisoquinolin-1-yl)-N-(piperidin-3-yl)benzamide]", "IC50": 51}
{"smiles": "Cc1cccc2ccnc(N(C(=O)c3ccc(-c4ccc[nH]c4=O)cc3)[C@@H]3CCCNC3)c12", "note": "[Example 332, (R)—N-(8-methylisoquinolin-1-yl)-4-(2-oxo-1,2-dihydropyridin-3-yl)-N-(piperidin-3-yl)benzamide]", "IC50": 2700}
{"smiles": "Cc1cccc2ccnc(N(C(=O)c3ccc(Nc4nccc(C(=O)O)n4)cc3F)[C@@H]3CCCNC3)c12", "note": "[Example 401, (R)-2-((3-fluoro-4-((8-methylisoquinolin-1-yl)(piperidin-3-yl)carbamoyl)phenyl)amino)pyrimidine-4-carboxylic acid]", "IC50": "> 10000"}
{"smiles": "[2H]C([2H])([2H])c1nnc(-c2ccc(C(=O)N(c3nccc4cc(C)cc(C)c34)[C@@H]3CCCNC3)c(F)c2)s1", "note": "[Example 906, N-(6,8-dimethyl-1-isoquinolyl)-2-fluoro-N-[(3R)-3-piperidyl]-4-[5-(trideuteriomethyl)-1,3,4-thiadiazol-2-yl]benzamide]", "IC50": 48}
{"smiles": "O=C(c1ccc(Nc2ncccn2)cc1F)N(c1nccc2cc(Cl)ccc12)[C@@H]1CCCNC1", "note": "[Example 794, (R)—N-(6-chloroisoquinolin-1-yl)-2-fluoro-N-(piperidin-3-yl)-4-(pyrimidin-2-ylamino)benzamide]", "IC50": 1300}
{"smiles": "CCc1nnc(-c2ccc(C(=O)N(c3nccc4sc(C)nc34)[C@@H]3CCCNC3)c(F)c2)s1", "note": "[Example 667, (R)-4-(5-ethyl-1,3,4-thiadiazol-2-yl)-2-fluoro-N-(2-methylthiazolo[4,5-c]pyridin-4-yl)-N-(piperidin-3-yl)benzamide]", "IC50": 55}
{"smiles": "O=C(c1ccc(Nc2ncccn2)cc1)N(c1ncccc1Cl)[C@@H]1CCCNC1", "note": "[Example 925, (R)—N-(3-chloropyridin-2-yl)-N-(piperidin-3-yl)-4-(pyrimidin-2-ylamino)benzamide]", "IC50": 32}
{"smiles": "Cc1cccc2ccnc(N(C(=O)N3CCC(c4cn(C)nn4)CC3)[C@@H]3CCCNC3)c12", "note": "[Example 347, N-(8-methyl-1-isoquinolyl)-4-(1-methyltriazol-4-yl)-N-[(3R)-3-piperidyl]piperidine-1-carboxamide]", "IC50": 300}
{"smiles": "Cc1cc(C)c2c(N(C(=O)c3ccc(-c4nnc(C)s4)nc3)[C@@H]3CCCNC3)nccc2c1", "note": "[Example 648, (R)—N-(6,8-dimethylisoquinolin-1-yl)-6-(5-methyl-1,3,4-thiadiazol-2-yl)-N-(piperidin-3-yl)nicotinamide]", "IC50": 39}
{"smiles": "COc1ccc2c(N(C(=O)c3ccc(-c4nnc(C)s4)cn3)[C@@H]3CCCNC3)nccc2c1F", "note": "[Example 867, N-(5-fluoro-6-methoxy-1-isoquinolyl)-5-(5-methyl-1,3,4-thiadiazol-2-yl)-N-[(3R)-3-piperidyl]pyridine-2-carboxamide]", "IC50": 970}
{"smiles": "Cc1nnc(-c2ccc(C(=O)N(c3nccc4scc(C)c34)[C@@H]3CCCNC3)c(F)c2)s1", "note": "[Example 781, (R)-2-fluoro-4-(5-methyl-1,3,4-thiadiazol-2-yl)-N-(3-methylthieno[3,2-c]pyridin-4-yl)-N-(piperidin-3-yl)benzamide]", "IC50": 130}
{"smiles": "Cc1cccc2ccnc(N(C(=O)c3ccc(Nc4ncccn4)nc3)[C@@H]3CCCNC3)c12", "note": "[Example 846, (R)—N-(8-methylisoquinolin-1-yl)-N-(piperidin-3-yl)-6-(pyrimidin-2-ylamino)nicotinamide]", "IC50": 420}
{"smiles": "O=C(c1ccc(-n2nnc3cccnc32)cc1F)N(c1nccc2sc(-c3ccc(CO)cc3)cc12)[C@@H]1CCCNC1", "note": "[Example 599, (R)-4-(3H-[1,2,3]triazolo[4,5-b]pyridin-3-yl)-2-fluoro-N-(2-(4-(hydroxymethyl)phenyl)thieno[3,2-c]pyridin-4-yl)-N-(piperidin-3-yl)benzamide]", "IC50": 240}
{"smiles": "CN1CCN(c2ccnc(Nc3ccc(C(=O)N(c4nccc5cc(F)ccc45)[C@@H]4CCCNC4)c(F)c3)n2)CC1", "note": "[Example 562, (R)-2-fluoro-N-(6-fluoroisoquinolin-1-yl)-4-((4-(4-methylpiperazin-1-yl)pyrimidin-2-yl)amino)-N-(piperidin-3-yl)benzamide]", "IC50": 340}
{"smiles": "O=C(c1ccc(-n2nnc3cccnc32)cc1F)N(c1nccc2ccc(/C=C\\CO)cc12)[C@@H]1CCCNC1", "note": "[Example 337, (R,Z)-4-(3H-[1,2,3]triazolo[4,5-b]pyridin-3-yl)-2-fluoro-N-(7-(3-hydroxyprop-1-en-1-yl)isoquinolin-1-yl)-N-(piperidin-3-yl)benzamide]", "IC50": 250}
{"smiles": "CCc1nnc(-c2ccc(C(=O)N(c3nccc4cccc(C)c34)[C@@H]3CCCNC3)c(F)c2)s1", "note": "[Example 837, (R)-4-(5-ethyl-1,3,4-thiadiazol-2-yl)-2-fluoro-N-(8-methylisoquinolin-1-yl)-N-(piperidin-3-yl)benzamide]", "IC50": 34}
{"tested_on": "MV-4-11 cells", "assay": "Cell Viability Assay in MV-4-11 Cells", "format": "cell-based", "settings": "MV-4-11 cells, 72 h, Cell-Titer Glo; read-out: IC50", "method_in_brief": "as §1", "units": {"IC50": "nM"}}
{"smiles": "Cc1csc2ccnc(N(C(=O)c3ccc(Nc4ncccn4)cc3F)[C@@H]3CCCNC3)c12", "note": "[Example 931, (R)-2-fluoro-N-(3-methylthieno[3,2-c]pyridin-4-yl)-N-(piperidin-3-yl)-4-(pyrimidin-2-ylamino)benzamide]", "IC50": 170}
